Laboratory results reported in US20260115213A1 (priority 2021, published 2026).

Tests used:
5′-UTR of beta-globin = settings: HepG2 cells, 5, 10, 50 and 100 nM, 48 h, normalized to Renilla and DMSO control
[1] = biological target: T1, eIF4A1(19-406)-(AG)5-AMPPNP complex (purified recombinant human eIF4A) (Homo sapiens, UniProt P60842); experiment: Thermal shift assay, melting temperature of eIF4A1(19-406)-(AG)5-AMPPNP-rocaglate complexes; format: binding; settings: 5 μM eIF4A, 50 μM (AG)5 RNA, 1 mM AMP-PNP, 100 μM compound; DMSO negative control Tm=48.80
T1 construct: eIF4A1(19-406)=amino acid residues 19-406 of eIF4A1; made in house
T1 sequence (P60842 19-406, one chain of several): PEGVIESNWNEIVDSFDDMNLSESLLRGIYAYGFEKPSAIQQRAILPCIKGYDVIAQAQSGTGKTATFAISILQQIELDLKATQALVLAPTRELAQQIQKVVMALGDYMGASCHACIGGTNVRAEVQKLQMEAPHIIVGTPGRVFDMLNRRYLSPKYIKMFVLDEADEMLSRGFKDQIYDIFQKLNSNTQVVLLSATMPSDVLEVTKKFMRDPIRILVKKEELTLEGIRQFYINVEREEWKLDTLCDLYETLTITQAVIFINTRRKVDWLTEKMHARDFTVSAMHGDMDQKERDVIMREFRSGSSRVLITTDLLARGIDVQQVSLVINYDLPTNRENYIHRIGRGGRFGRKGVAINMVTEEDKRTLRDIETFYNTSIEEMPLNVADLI
Experimental: A thermal shift assay was performed to study the complexing of the synthetic rocaglates with the eIF4A complex. For the thermal shift assay a final protein concentration of 5 μM purified recombinant human eIF4A (purification according to Iwasaki, et al., 2019) was used. In a reaction volume of 20 μL a 10-fold excess of polypurine RNA ((AG)5) (biomers) (final concentration: 50 μM), 1 mM of the ATP analogue AMP-PNP (ROCHE™), 100 μM of the synthetic rocaglate compounds or DMSO as well as 0.3 μL SYPRO® Orange Protein Gel Stain (SIGMA-ALDRICH™) were mixed with the protein. The measurement was performed in a MICROAMP® Fast 96-Well Reaction Plate (0.1 mL, APPLIED BIOSYSTEMS™) using the QUANTSTUDIO3™ Real-Time PCR System (APPLIED BIOSYSTEMS™). The melt curve starting temperature was set to 10° C. in increments of 0.05° C./s ending at 95° C. After measurement, the data was analyzed using the PROTEIN THERMAL SHIFT™ Software (APPLIED BIOSYSTEMS™).

5′-UTR of (AG)15 = settings: HepG2 cells, 5, 10, 50 and 100 nM, 48 h, normalized to Renilla and DMSO control
[2] = system: RNA viruses representing different virus families (EBOV, CoV, ZIKV, CHIKV, HEV); settings: non-cytotoxic concentrations; cited from earlier work

| Compound | melting temperature (Tm) of eIF4A1(19-406)-(AG)5-AMPPNP-Rocaglate complex [1] | other results |
| --- | --- | --- |
| CONC(=O)[C@H]1[C@@H](O)[C@@]2(O)c3c(OC)cc(OC)cc3O[C@@]2(c2ccc(O)cc2)[C@@H]1c1ccccc1 [Compound 1, (1R,2R,3S,3aR,8bS)-1,8b-dihydroxy-3a-(4-hydroxyphenyl)-N,6,8-trimethoxy-3-phenyl-2,3-dihydro-1Hcyclopenta[b]benzofuran-2-carboxamide] | 51.49 | reporter activity, β-globin 5′-UTR (eIF4A-independent effect) (5′-UTR of beta-globin): nonspecific effects |
| CONC(=O)[C@H]1[C@@H](O)[C@@]2(O)c3c(OC)cc(O)cc3O[C@@]2(c2ccc(OC)cc2)[C@@H]1c1ccccc1 [Compound 6, (1R,2R,3S,3aR,8bS)-1,6,8b-trihydroxy-N,8-dimethoxy-3a-(4-methoxyphenyl)-3-phenyl-2,3-dihydro-1Hcyclopenta[b]benzofuran-2-carboxamide] | 51.29 |  |
| CONC(=O)[C@@H]1[C@H](O)[C@]2(O)c3c(OC)cc(O)cc3O[C@]2(c2ccc(OC)cc2)[C@H]1c1ccccc1 [Compound 7, (1S,2S,3R,3aS,8bR)-1,6,8b-trihydroxy-N,8-dimethoxy-3a-(4-methoxyphenyl)-3-phenyl-2,3,3a,8b-tetrahydro-1H-cyclopenta[b]benzofuran-2-carboxamide] | 49.07 |  |
| COc1cc(OC)c2c(c1)O[C@]1(c3ccc(O)cc3)[C@@H](c3ccccc3)[C@H](C(N)=O)[C@H](O)[C@]21O [Compound 8, (1S,2S,3R,3aS,8bR)-1,8b-dihydroxy-3a-(4-hydroxyphenyl)-6,8-dimethoxy-3-phenyl-2,3-dihydro-1H-cyclopenta[b]benzofuran-2-carboxamide] | 51.07 |  |
| COc1cc(OC)c2c(c1)O[C@@]1(c3ccc(O)cc3)[C@H](c3ccccc3)[C@@H](C(N)=O)[C@@H](O)[C@@]21O [Compound 9, (1R,2R,3S,3aR,8bS)-1,8b-dihydroxy-3a-(4-hydroxyphenyl)-6,8-dimethoxy-3-phenyl-2,3-dihydro-1H-cyclopenta[b]benzofuran-2-carboxamide] | 55.44 | reporter activity, (AG)15 5′-UTR (eIF4A-dependency) (5′-UTR of (AG)15): only reduced reporter activity with polyAG sequences |
| COC(=O)[C@H]1[C@@H](O)[C@@]2(O)c3c(OC)cc(O[C@@H]4O[C@@H]([C@H](O)CO)CO[C@H]4OC)cc3O[C@@]2(c2ccc(OC)cc2)[C@@H]1c1ccccc1 [Silvestrol, methyl (1R,2R,3S,3aR,8bS)-6-[[(2S,3R,6R)-6-[(1R)-1,2-dihydroxyethyl]-3-methoxy-1,4-dioxan-2-yl]oxy]-1,8b-dihydroxy-8-methoxy-3a-(4-methoxyphenyl)-3-phenyl-2,3-dihydro-1H-cyclopenta[b][1]benzofuran-2-carboxylate] |  | concentration range of broad-spectrum antiviral activity [2]: low nanomolar range |
